Key:
[1] = system: intracranial hemorrhagic injury; test: Mouse model of intracranial hemorrhagic injury; type: in vivo; details: single 25 mg/kg i.p. dose
[2] = system: CPB/DHCA perioperative cerebral injury; test: Rat model of cardiopulmonary bypass (CPB)/deep hypothermic circulatory arrest (DHCA); type: in vivo, Sprague-Dawley rats; details: for apoptotic and necrotic neurons in cortex and hippocampus: 25 mg/kg, 48 hours after DHCA, FIG. 6, FIG. 7; for decrease in post-operative blood brain barrier permeability (gadolinium chelate, MRI): compared to respective control groups, p<0.05, preliminary results
Experimental: Perioperative cerebral injury (PCI) following major cardiovascular surgery using cardiopulmonary bypass (CPB) and deep hypothermic circulatory arrest (DHCA) remains a significant cause of adverse cerebral outcome. […] Cannulas were placed in the tail artery and the right external jugular vein. Animals were then cooled on CPB for 30 minutes, and DHCA was instituted at a pericranial temperature of 16-18° C. […] MRI was performed on day-1 post-operatively, neurological assessments on day 1 and 2 post-operatively, and animals then sacrificed after day 2.

[3] = system: transient middle cerebral artery (MCA) occlusion; test: Mouse model of transient middle cerebral artery (MCA) occlusion; type: in vivo
[4] = in vivo
[5] = system: vascular dementia (BCAS mice); test: Murine model of vascular dementia (BCAS); type: in vivo; details: for Morris water maze escape latency: versus vehicle, n=10
Experimental: Vascular dementia is caused by chronic cerebral hypoperfusion and is characterized clinically by white matter lesions on MRI and a decline in executive function. […] Physiological, cellular, and functional outcomes were determined using a combination of quantitative immunochemistry, MRI, and behavioral tasks including Morris water maze and rotorod.

[6] = system: TBI model of diffuse closed head injury; test: Murine TBI model of diffuse closed head injury; type: in vivo; details: single 25 mg/kg administration, n=12/gp
Text: The neuroprotective potential of QR2 inhibition was investigated in a murine TBI model of diffuse closed head injury (Laskowitz et al., “Neuroprotective pentapeptide CN-105 is associated with reduced sterile inflammation and improved functional outcomes in a traumatic brain injury murine model.” Sci. Rep. 2017 Apr. 21; 7:46461).

QR2 = biological target: T1, QR2 (Homo sapiens, UniProt P16083); test: Inhibition of QR2 (IC50, Table 1); type: biochemical; details: for LiPE (pIC50-clogP): lipophilic efficiency, QR2 pIC50 minus clog P; for IC50: inhibitors of QR2, mean +/− SD
T1 sequence (P16083 1-231): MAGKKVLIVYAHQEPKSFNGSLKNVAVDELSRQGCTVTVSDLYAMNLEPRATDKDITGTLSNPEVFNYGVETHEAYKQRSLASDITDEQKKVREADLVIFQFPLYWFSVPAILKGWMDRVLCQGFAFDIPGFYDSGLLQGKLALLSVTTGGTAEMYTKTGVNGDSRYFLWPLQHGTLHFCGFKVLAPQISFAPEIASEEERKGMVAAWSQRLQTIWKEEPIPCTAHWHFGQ

[7] = system: permanent MCA occlusion model; details: cited from earlier work
[8] = during therapeutic dosing; cited from earlier work

Row | LiPE (pIC50-clogP) (QR2) | IC50 (QR2) [µM] | Compound | apoptotic and necrotic neurons in cortex and hippocampus [2] | decrease in post-operative blood brain barrier permeability (gadolinium chelate, MRI) [2] [%] | Morris water maze escape latency [5] | also measured
1 | 1.65 | 2.7 | Oc1ccc(CCNc2ccnc3cc(Cl)ccc23)cc1 [Example Compound A, 4-{2-[(7-chloroquinolin-4-yl)amino]ethyl}phenol] | – | – | – | –
2 | 4.30 | – | COc1cc(NCc2ccccn2)c2ncccc2c1 [Example Compound B, 6-methoxy-N-(pyridin-2-ylmethyl)quinolin-8-amine] | – | – | – | –
3 | 3.42 | 0.85 | COc1cc(NC(C)c2ccco2)c2ncccc2c1 (stereo not shown) [Example Compound C, N-[1-(furan-2-yl)ethyl]-6-methoxyquinolin-8-amine] | – | – | – | –
4 | 2.71 | 0.55 | Clc1ccc2c(Nc3ccccn3)ccnc2c1 [Example Compound D, 7-chloro-N-(pyridin-2-yl)quinolin-4-amine] | – | – | – | –
5 | – | – | CCN(CC)CCCC(C)Nc1ccnc2cc(Cl)ccc12 (stereo not shown) [chloroquine] | fewer apoptotic and necrotic neurons | 3 | performance profile similar to their N-MCQ counterparts | reduction of stroke volumes [7]: 60%; stroke evolution between 4 and 24 hours by DW-MRI ([3]; single i.p. 25 mg/kg 90 minutes after ischemia onset): reduction in stroke evolution; reduction in overall stroke volume ([3]; single i.p. 25 mg/kg 90 minutes after ischemia onset, post-mortem histology at 72 hours): 55%; plasma concentration [8]: < 1000 nM

Row | Compound | LiPE (pIC50-clogP) (QR2) | IC50 (QR2) [µM] | apoptotic and necrotic neurons in cortex and hippocampus [2] | decrease in post-operative blood brain barrier permeability (gadolinium chelate, MRI) [2] [%] | Morris water maze escape latency [5] | also measured
6 | CNc1ccnc2cc(Cl)ccc12 [7C-4MAQ, 7-chloro-N-methylquinolin-4-amine] | 4.67 | – | fewer apoptotic and necrotic neurons | 3 | decreased escape latencies compared to vehicle controls | improvement in motor function (rotorod assessment) [1]: 21%; neurological scores at post-op day 1 and 2 ([2]; 25 mg/kg 2 hours before CPB/DHCA, FIG. 8): significantly improved neurological scores; reductions in cortical stroke volumes relative to those after CQ ([3]; equivalent single acute phase dose 25 mg/kg, FIG. 3C): ~2 ×; LD50 relative to the 25 mg/kg dose [4]: more than 20 times; Morris water maze probe trial, time in target quadrant ([5]; p<0.05 group effect): significantly more time in the target quadrant; improvement in Morris water maze performance ([6]; 1 month following injury): 62%; improvement over vehicle in rotorod latency [6]: 20%
